Assays:
Format in all cases: in vivo
Musca domestica = test: Test Example 2: treated filter paper with sucrose bait, death rate of Musca domestica; conditions: 500 ppm test solution, 0.7 ml on filter paper, 10 female imagoes, after 24 hours
Description: (§1) Preparations of the present compounds (1), (2), (3), (4), (5), (6), (7), (8), (9), (10), (13), (18), (23), (24), (25), (26), (27), (28), (29), (30), (31), (32), (33), (34), (35), (38) and (39) obtained according to Formulation Example 44 were diluted so that the active ingredient concentration was 500 ppm to obtain test solutions.
(§2) A filter paper having a diameter of 5.5 cm was spread on the bottom of a polyethylene cup having a diameter of 5.5 cm and 0.7 ml of the test solution was added dropwise onto the filter paper. As a bait 30 mg of sucrose was uniformly placed on the filter paper. Into the polyethylene cup, 10 female imagoes of Musca domestica were released and the cup was sealed with a lid. After 24 hours, the number of surviving Musca domestica was examined and the death rate of the pest was calculated.
As a result, in treatments with the present compounds (1), (2), (3), (4), (5), (6), (7), (8), (9), (10), (13), (18), (23), (24), (25), (26), (27), (28), (29), (30), (31), (32), (33), (34), (35), (38) and (39), the death rate of the pest was 70% or more.

Blattalla germanica = test: Test Example 3: treated filter paper with sucrose bait, death rate of Blattalla germanica; conditions: 144 h; 500 ppm test solution, 0.7 ml on filter paper; 2 male imagoes; after 6 days
Description: as §1, with “compounds” for “compounds (1), (2),”, “(7),” for “(7), (8),”, “(13),” for “(13), (18),”
as §2, with “2 male” for “10 female”, “Blattalla germanica” for “Musca domestica”, “6 days,” for “24 hours,”
As a result, in treatments with the present compounds (3), (4), (5), (6), (7), (9), (10), (13), (23), (24), (25), (26), (27), (28), (29), (30), (31), (32), (33), (34), (35), (38) and (39), the death rate of the pest was 100%.

Culex pipiens pallens = test: Test Example 4: larvae released into treated water, death rate of Culex pipiens pallens; conditions: 24 h, active ingredient concentration 3.5 ppm in water, 20 last-instar larvae, after one day
Description: as §1, with “(7),” for “(7), (8), (9), (10),”, “(13), (14), (15), (16),” for “(13),”, “(18), (22),” for “(18),”, “(35), (36),” for “(35),”
To 100 mL of ion-exchanged water, 0.7 ml of the test solution was added (active ingredient concentration: 3.5 ppm). Into the solution, 20 last-instar larvae of Culex pipiens pallens were released. After one day, the number of surviving Culex pipiens pallens was examined and the death rate of the pest was calculated.
As a result, in treatments with the present compounds (1), (2), (3), (4), (5), (6), (7), (13), (14), (15), (16), (18), (22), (23), (24), (25), (26), (27), (28), (29), (30), (31), (32), (33), (34), (35), (36), (38) and (39), the death rate of the pest was 90% or more.

[1] = tested on: Haemaphysalis longicornis; test: Test Example 5: treated filter paper pouch, death rate of ticks; conditions: 48 h, filter paper treated with 100 mg/m^2, non-blood-sucking nymphal ticks, 10 ticks/group, after 2 days, read-out: death rate of the tick
Description: Five milligrams of any one of the present compounds (19), (23), (24), (27), (28), (29), (32), (33), (35), (38) and (39) was dissolved in 10 mL of acetone. One milliliter of the acetone solution was uniformly applied on one side of a filter paper (TOYO No. 2; 5×10 cm), so that the filter paper was treated with 100 mg/m^2 of the present compound. After drying, the filter paper was folded in two and its edges were clipped to make a pouch. Non-blood-sucking nymphal ticks (Haemaphysalis longicornis, 10 ticks/group) were put into the pouch, and the pouch was sealed with clips. After 2 days, the number of surviving ticks was examined and the death rate was calculated.
As a result, in treatments with the present compounds (19), (23), (24), (27), (28), (29), (32), (33), (35), (38) and (39), the death rate of the tick was 90%.

Structure (SMILES) | pest or weed control at 500 ppm (Musca domestica) [%] | pest or weed control at 500 ppm (Blattalla germanica) [%] | pest or weed control at 3.5 ppm (Culex pipiens pallens) [%] | pest or weed control at 100 mg/m2 [1] [%]
C#CC(C)CCCC(C#N)S(=O)(=O)CCC(F)(F)F (stereo not shown) [present compound (28), 6-methyl-2-(3,3,3-trifluoropropylsulfonyl)-7-octynenitrile] | ≥ 70 | 100 | ≥ 90 | 90
C#CCC(CC)CCC(C#N)S(=O)(=O)CCC(F)(F)F (stereo not shown) [present compound (29), 5-ethyl-2-(3,3,3-trifluoropropylsulfonyl)-7-octynenitrile] | ≥ 70 | 100 | ≥ 90 | 90
C#CCC(CC)CCC(Cl)(C(N)=O)S(=O)(=O)CCC(F)(F)F (stereo not shown) [present compound (32), 2-chloro-5-ethyl-2-(3,3,3-trifluoropropylsulfonyl)-7-octynamide] | ≥ 70 | 100 | ≥ 90 | 90
C#CCC(C)(C)CCC(C#N)S(=O)(=O)CCC(F)(F)F (stereo not shown) [present compound (33), 5,5-dimethyl-2-(3,3,3-trifluoropropylsulfonyl)-7-octynenitrile] | ≥ 70 | 100 | ≥ 90 | 90
C/C(=C\CC(C#N)S(=O)(=O)CCC(F)(F)F)C(F)(F)F (stereo not shown) [present compound (35), 6,6,6-trifluoro-5-methyl-2-(3,3,3-trifluoropropylsulfonyl)-4-hexenenitrile] | ≥ 70 | 100 | ≥ 90 | 90
C#CCOCCC(C#N)S(=O)(=O)CCC(F)(F)F (stereo not shown) [present compound (38), 4-(2-propyonyloxy)-2-(3,3,3-trifluoropropylsulfonyl)butanenitrile] | ≥ 70 | 100 | ≥ 90 | 90
C#CCOCCC(C)(C#N)S(=O)(=O)CCC(F)(F)F (stereo not shown) [present compound (39), 2-methyl-4-(2-propynyloxy)-2-(3,3,3-trifluoropropylsulfonyl)butanenitrile] | ≥ 70 | 100 | ≥ 90 | 90
